Paper PMC5218480 (PLoS ONE, 2017)

Test system: MV-4-11 cells
Experiment: Gene expression microarray analysis (Affymetrix PrimeView) and GSEA
Type: cell-based, human
Design: RFU PODN (11730768_x_at) / Fold change /veh PODN (11730768_x_at) / RFU LINC00158 (11744669_a_at) / Fold change /veh LINC00158 (11744669_a_at) / RFU DUSP10 (11751237_a_at) / Fold change /veh DUSP10 (11751237_a_at) / RFU ID3 (11757404_x_at) / Fold change /veh ID3 (11757404_x_at) / RFU PLEKHG5 (11737974_s_at) / Fold change /veh PLEKHG5 (11737974_s_at) / RFU LRRC4B (11730491_at) / Fold change /veh LRRC4B (11730491_at) / RFU GIMAP4 (11747438_a_at) / Fold change /veh GIMAP4 (11747438_a_at) / RFU KRT8 (11758183_x_at) / Fold change /veh KRT8 (11758183_x_at) / RFU CNN1 (11734310_a_at) / Fold change /veh CNN1 (11734310_a_at) / RFU VPS37D (11726825_at) / Fold change /veh VPS37D (11726825_at) / RFU C10orf10 (11716522_x_at) / Fold change /veh C10orf10 (11716522_x_at) / RFU KIR2DL2 /// KIR2DL4 /// KIR2DL5A /// KIR2DL5B /// KIR2DS1 /// KIR2DS2 /// KIR2DS3 /// KIR2DS4 /// KIR3DL3 /// KIR3DL3 /// KIR3DS1 (11738374_at) / Fold change /veh KIR2DL2 /// KIR2DL4 /// KIR2DL5A /// KIR2DL5B /// KIR2DS1 /// KIR2DS2 /// KIR2DS3 /// KIR2DS4 /// KIR3DL3 /// KIR3DL3 /// KIR3DS1 (11738374_at) / RFU C1QL1 (11718748_at) / Fold change /veh C1QL1 (11718748_at) / RFU TMPRSS4 (11747572_a_at) / Fold change /veh TMPRSS4 (11747572_a_at) / RFU HAMP (11756126_x_at) / Fold change /veh HAMP (11756126_x_at) / RFU RNFT2 (11725882_a_at) / Fold change /veh RNFT2 (11725882_a_at) / RFU NR4A2 (11747474_a_at) / Fold change /veh NR4A2 (11747474_a_at) / RFU ABCC12 (11746883_a_at) / Fold change /veh ABCC12 (11746883_a_at) / RFU TMEM136 (11760407_x_at) / Fold change /veh TMEM136 (11760407_x_at) / RFU CLDN22 /// WWC2 (11732394_at) / Fold change /veh CLDN22 /// WWC2 (11732394_at) / RFU HLA-DPB1 (11760878_x_at) / Fold change /veh HLA-DPB1 (11760878_x_at) / RFU SPINT1 (11716480_a_at) / Fold change /veh SPINT1 (11716480_a_at) / RFU GAP43 (11754022_s_at) / Fold change /veh GAP43 (11754022_s_at) / RFU A4GNT (11735810_at) / Fold change /veh A4GNT (11735810_at) / RFU PRB3 (11715151_x_at) / Fold change /veh PRB3 (11715151_x_at) / RFU TUBB4B (11761932_at) / Fold change /veh TUBB4B (11761932_at) / RFU CAPN14 (11732068_a_at) / Fold change /veh CAPN14 (11732068_a_at) / RFU TMCC2 (11721928_a_at) / Fold change /veh TMCC2 (11721928_a_at) / RFU IRGQ (11745062_a_at) / Fold change /veh IRGQ (11745062_a_at) / RFU FAM174B (11720279_a_at) / Fold change /veh FAM174B (11720279_a_at) / RFU TMPRSS4 (11748680_a_at) / Fold change /veh TMPRSS4 (11748680_a_at) / RFU FAM212B (11763350_a_at) / Fold change /veh FAM212B (11763350_a_at) / RFU PLEKHG5 (11743358_a_at) / Fold change /veh PLEKHG5 (11743358_a_at) / RFU ZSCAN30 (11745921_a_at) / Fold change /veh ZSCAN30 (11745921_a_at) / RFU CMKLR1 (11741424_a_at) / Fold change /veh CMKLR1 (11741424_a_at) / RFU LOC101060620 /// MAPK8IP1 (11723275_at) / Fold change /veh LOC101060620 /// MAPK8IP1 (11723275_at) / RFU SPTSSB (11747773_x_at) / Fold change /veh SPTSSB (11747773_x_at) / RFU PRSS12 (11739890_at) / Fold change /veh PRSS12 (11739890_at) / RFU BIN1 (11741810_x_at) / Fold change /veh BIN1 (11741810_x_at) / RFU WNT11 (11732464_a_at) / Fold change /veh WNT11 (11732464_a_at) / RFU C10orf10 (11716521_a_at) / Fold change /veh C10orf10 (11716521_a_at) / RFU C5orf56 (11738089_at) / Fold change /veh C5orf56 (11738089_at) / RFU CYB561 (11721691_x_at) / Fold change /veh CYB561 (11721691_x_at) / RFU ANKRD19P (11752326_a_at) / Fold change /veh ANKRD19P (11752326_a_at) / RFU OR2T12 /// OR2T33 /// OR2T8 (11738714_s_at) / Fold change /veh OR2T12 /// OR2T33 /// OR2T8 (11738714_s_at) / RFU VCAN (11748164_a_at) / Fold change /veh VCAN (11748164_a_at) / RFU JSRP1 (11732532_at) / Fold change /veh JSRP1 (11732532_at) / RFU KRTAP10-11 (11738290_x_at) / Fold change /veh KRTAP10-11 (11738290_x_at) / RFU MYO3A (11730013_a_at) / Fold change /veh MYO3A (11730013_a_at) / RFU EBF3 (11725865_a_at) / Fold change /veh EBF3 (11725865_a_at) / RFU CAMK2N1 (11719241_x_at) / Fold change /veh CAMK2N1 (11719241_x_at) / RFU C5orf56 (11738088_a_at) / Fold change /veh C5orf56 (11738088_a_at) / RFU OLFML3 (11715873_a_at) / Fold change /veh OLFML3 (11715873_a_at) / RFU LOC100653217 /// NTM (11731650_a_at) / Fold change /veh LOC100653217 /// NTM (11731650_a_at) / RFU MAPK11 (11762145_a_at) / Fold change /veh MAPK11 (11762145_a_at) / RFU FIZ1 (11724087_x_at) / Fold change /veh FIZ1 (11724087_x_at) / RFU OASL (11726364_x_at) / Fold change /veh OASL (11726364_x_at) / RFU SOX15 (11748057_x_at) / Fold change /veh SOX15 (11748057_x_at) / RFU CD79A (11719716_a_at) / Fold change /veh CD79A (11719716_a_at) / RFU HIST1H1D (11736915_at) / Fold change /veh HIST1H1D (11736915_at) / RFU CASKIN2 (11723855_a_at) / Fold change /veh CASKIN2 (11723855_a_at) / RFU LOC730098 (11760151_x_at) / Fold change /veh LOC730098 (11760151_x_at) / RFU OR4N2 (11742367_at) / Fold change /veh OR4N2 (11742367_at) / RFU PRRT2 (11749266_a_at) / Fold change /veh PRRT2 (11749266_a_at) / RFU SNX32 (11753110_a_at) / Fold change /veh SNX32 (11753110_a_at) / RFU CDHR5 (11726645_a_at) / Fold change /veh CDHR5 (11726645_a_at) / RFU RCAN1 (11760418_a_at) / Fold change /veh RCAN1 (11760418_a_at) / RFU FAM167A (11723789_a_at) / Fold change /veh FAM167A (11723789_a_at) / RFU FAM26E (11764081_at) / Fold change /veh FAM26E (11764081_at) / RFU ISYNA1 (11749810_s_at) / Fold change /veh ISYNA1 (11749810_s_at) / RFU ACY1 (11761880_at) / Fold change /veh ACY1 (11761880_at) / RFU 11764098_at / Fold change /veh 11764098_at / RFU SAMD14 (11745864_x_at) / Fold change /veh SAMD14 (11745864_x_at) / RFU NPB (11741838_a_at) / Fold change /veh NPB (11741838_a_at) / RFU TMPRSS6 (11731388_a_at) / Fold change /veh TMPRSS6 (11731388_a_at) / RFU KRTAP10-2 (11738614_at) / Fold change /veh KRTAP10-2 (11738614_at) / RFU ARHGAP8 /// PRR5-ARHGAP8 (11727945_x_at) / Fold change /veh ARHGAP8 /// PRR5-ARHGAP8 (11727945_x_at) / RFU KRTAP5-7 /// NADSYN1 (11734609_at) / Fold change /veh KRTAP5-7 /// NADSYN1 (11734609_at) / RFU RASL12 (11751679_a_at) / Fold change /veh RASL12 (11751679_a_at) / RFU CDKN2B (11736163_a_at) / Fold change /veh CDKN2B (11736163_a_at) / RFU PRF1 (11729649_at) / Fold change /veh PRF1 (11729649_at) / RFU, ZNF638 /// ZNF638-IT1 / Fold change vs veh, ZNF638 /// ZNF638-IT1 / RFU, PANK3 / Fold change vs veh, PANK3 / RFU, SH3YL1 / Fold change vs veh, SH3YL1 / RFU, ZEB2 / Fold change vs veh, ZEB2 / RFU, NRIP1 / Fold change vs veh, NRIP1 / RFU, PTTG1IP / Fold change vs veh, PTTG1IP / RFU, CAPN2 / Fold change vs veh, CAPN2 / RFU, MED14 / Fold change vs veh, MED14 / RFU, SNORA58 / Fold change vs veh, SNORA58 / RFU, C1orf63 / Fold change vs veh, C1orf63 / RFU, LRRFIP1 / Fold change vs veh, LRRFIP1 / RFU, NDUFAF7 / Fold change vs veh, NDUFAF7 / RFU, SLC12A2 / Fold change vs veh, SLC12A2 / RFU, IBTK / Fold change vs veh, IBTK / RFU, ESF1 / Fold change vs veh, ESF1 / Fold change vs veh, TMEM50B / RFU, TAOK1 / Fold change vs veh, TAOK1 / RFU, ACBD3 / Fold change vs veh, ACBD3 / RFU, TMA16 / Fold change vs veh, TMA16 / RFU, RWDD3 / Fold change vs veh, RWDD3 / RFU, BCAT1 / Fold change vs veh, BCAT1 / RFU, EDEM3 / Fold change vs veh, EDEM3 / RFU, TMEM33 / Fold change vs veh, TMEM33 / RFU, WDR75 / Fold change vs veh, WDR75 / RFU, AHCTF1 / Fold change vs veh, AHCTF1 / RFU, TFRC / Fold change vs veh, TFRC / RFU, ZDHHC17 / Fold change vs veh, ZDHHC17 / RFU, NOM1 / Fold change vs veh, NOM1 / RFU, ARL8B / Fold change vs veh, ARL8B / RFU, ZBTB11 / Fold change vs veh, ZBTB11 / RFU, TAMM41 / Fold change vs veh, TAMM41 / RFU, KIAA1704 /// LOC100996395 / Fold change vs veh, KIAA1704 /// LOC100996395 / RFU, ING1 / Fold change vs veh, ING1 / RFU, TRMT61B / Fold change vs veh, TRMT61B / RFU, FUBP3 / Fold change vs veh, FUBP3 / RFU, TP53 / Fold change vs veh, TP53 / RFU, TNKS2 / Fold change vs veh, TNKS2 / RFU, ZFP14 / Fold change vs veh, ZFP14 / RFU, ACTR2 / Fold change vs veh, ACTR2 / RFU, PPP3R1 / Fold change vs veh, PPP3R1 / RFU, PIK3R1 / Fold change vs veh, PIK3R1 / RFU, HNRNPA1 / Fold change vs veh, HNRNPA1 / RFU, RNF170 / Fold change vs veh, RNF170 / RFU, ZNF28 / Fold change vs veh, ZNF28 / RFU, RNGTT / Fold change vs veh, RNGTT / RFU, OGT / Fold change vs veh, OGT / RFU, BRD1 / Fold change vs veh, BRD1 / RFU, MARS / Fold change vs veh, MARS / RFU, ZNF655 / Fold change vs veh, ZNF655 / RFU, FAHD1 / Fold change vs veh, FAHD1 / RFU, BDP1 / Fold change vs veh, BDP1 / RFU, LRRCC1 / Fold change vs veh, LRRCC1 / RFU, ARID1A / Fold change vs veh, ARID1A / RFU, ZNF146 / Fold change vs veh, ZNF146 / RFU, ZNF330 / Fold change vs veh, ZNF330 / RFU, GPN3 / Fold change vs veh, GPN3 / RFU, C9orf123 / Fold change vs veh, C9orf123 / RFU, N4BP2L2 / Fold change vs veh, N4BP2L2 / RFU, ARFIP1 / Fold change vs veh, ARFIP1 / RFU, FAM179B / Fold change vs veh, FAM179B / RFU, BCL10 / Fold change vs veh, BCL10 / RFU, UHRF1BP1L / Fold change vs veh, UHRF1BP1L / RFU, BET1 / Fold change vs veh, BET1 / RFU, CNOT2 / Fold change vs veh, CNOT2 / RFU, ZNF268 / Fold change vs veh, ZNF268 / Fold change vs veh, ZNF507 / RFU, DGCR2 / Fold change vs veh, DGCR2 / RFU, WDSUB1 / Fold change vs veh, WDSUB1 / Fold change vs veh, HSP90B1 /// MIR3652 / RFU, ADSS / Fold change vs veh, ADSS / RFU, GK / Fold change vs veh, GK / RFU, ZNF148 / Fold change vs veh, ZNF148 / RFU, TAF9 / Fold change vs veh, TAF9 / RFU, SLC1A5 / Fold change vs veh, SLC1A5 / RFU, SLMO2 / Fold change vs veh, SLMO2 / RFU, ABCC4 / Fold change vs veh, ABCC4 / RFU, LOC101060439 /// RAP1B / Fold change vs veh, LOC101060439 /// RAP1B / RFU, RFX7 / Fold change vs veh, RFX7 / RFU, GTPBP10 / Fold change vs veh, GTPBP10 / RFU, CNEP1R1 / Fold change vs veh, CNEP1R1 / RFU, BIVM-ERCC5 /// ERCC5 / Fold change vs veh, BIVM-ERCC5 /// ERCC5 / RFU, ILF3 / Fold change vs veh, ILF3 / RFU 11762660_at / Fold change /veh 11762660_at / RFU VCAN (11757783_s_at) / Fold change /veh VCAN (11757783_s_at) / RFU DDX43 (11728927_at) / Fold change /veh DDX43 (11728927_at) / RFU KRT8 (11758188_x_at) / Fold change /veh KRT8 (11758188_x_at) / RFU NKD1 (11759106_at) / Fold change /veh NKD1 (11759106_at) / RFU SRD5A1 (11742802_a_at) / Fold change /veh SRD5A1 (11742802_a_at) / RFU TPSAB1 /// TPSB2 (11721975_s_at) / Fold change /veh TPSAB1 /// TPSB2 (11721975_s_at) / RFU GSTM3 (11746129_a_at) / Fold change /veh GSTM3 (11746129_a_at) / RFU IL23R (11737362_x_at) / Fold change /veh IL23R (11737362_x_at) / RFU TMEM51 (11727254_a_at) / Fold change /veh TMEM51 (11727254_a_at) / RFU PIWIL2 (11732686_x_at) / Fold change /veh PIWIL2 (11732686_x_at) / RFU ORM1 (11744905_x_at) / Fold change /veh ORM1 (11744905_x_at) / RFU CCDC152 (11743942_at) / Fold change /veh CCDC152 (11743942_at) / RFU ECM1 (11717891_a_at) / Fold change /veh ECM1 (11717891_a_at) / RFU IL23R (11748794_a_at) / Fold change /veh IL23R (11748794_a_at) / RFU TNFAIP8L3 (11732012_x_at) / Fold change /veh TNFAIP8L3 (11732012_x_at) / RFU MBOAT4 (11741988_at) / Fold change /veh MBOAT4 (11741988_at) / RFU 11764193_at / Fold change /veh 11764193_at / RFU TMEM53 (11763286_at) / Fold change /veh TMEM53 (11763286_at) / RFU MAGEB2 (11727129_at) / Fold change /veh MAGEB2 (11727129_at) / RFU TMEM200A (11744735_a_at) / Fold change /veh TMEM200A (11744735_a_at) / RFU CCDC152 (11751479_a_at) / Fold change /veh CCDC152 (11751479_a_at) / RFU FAM211A (11726209_a_at) / Fold change /veh FAM211A (11726209_a_at) / RFU RGS16 (11746705_a_at) / Fold change /veh RGS16 (11746705_a_at) / RFU VCAN (11755009_s_at) / Fold change /veh VCAN (11755009_s_at) / RFU RHOB (11743442_s_at) / Fold change /veh RHOB (11743442_s_at) / RFU RGS16 (11720943_a_at) / Fold change /veh RGS16 (11720943_a_at) / RFU RGS16 (11720944_at) / Fold change /veh RGS16 (11720944_at) / RFU, VPS4B / Fold change vs veh, VPS4B / RFU, CREB1 / Fold change vs veh, CREB1 / RFU, DNAJC13 / Fold change vs veh, DNAJC13 / RFU, GNAQ / Fold change vs veh, GNAQ / RFU, CDK5R1 / Fold change vs veh, CDK5R1 / RFU, ZRANB3 / Fold change vs veh, ZRANB3 / RFU, CUL4A / Fold change vs veh, CUL4A / RFU, CCNY / Fold change vs veh, CCNY / RFU, UFL1 / Fold change vs veh, UFL1 / RFU, COG3 / Fold change vs veh, COG3 / RFU, DIAPH2 / Fold change vs veh, DIAPH2 / RFU, SKA2 / Fold change vs veh, SKA2 / RFU, AFF3 / Fold change vs veh, AFF3 / RFU, LMF1 / Fold change vs veh, LMF1 / RFU, IPO11 / Fold change vs veh, IPO11 / RFU, DFFB / Fold change vs veh, DFFB / RFU, FOXP1 / Fold change vs veh, FOXP1 / RFU, CARD8 / Fold change vs veh, CARD8 / RFU, STRN3 / Fold change vs veh, STRN3 / RFU, ADK / Fold change vs veh, ADK / RFU, RASSF2 / Fold change vs veh, RASSF2 / RFU, WIPF1 / Fold change vs veh, WIPF1 / RFU, LARP1B / Fold change vs veh, LARP1B / RFU, RASA1 / Fold change vs veh, RASA1 / RFU, RB1 / Fold change vs veh, RB1 / RFU, PPFIA1 / Fold change vs veh, PPFIA1 / RFU, MAT2A / Fold change vs veh, MAT2A / RFU, CCT5 / Fold change vs veh, CCT5 / RFU, WDR92 / Fold change vs veh, WDR92 / RFU, CUX1 / Fold change vs veh, CUX1 / RFU, TTC7A / Fold change vs veh, TTC7A / RFU, TMEM135 / Fold change vs veh, TMEM135 / RFU, DEPTOR / Fold change vs veh, DEPTOR / RFU, CPM / Fold change vs veh, CPM / RFU, DNAJB6 / Fold change vs veh, DNAJB6 / RFU, CACNA2D3 / Fold change vs veh, CACNA2D3 / RFU, DTX4 / Fold change vs veh, DTX4 / RFU, TFCP2 / Fold change vs veh, TFCP2 / RFU, GMCL1 /// GMCL1P1 / Fold change vs veh, GMCL1 /// GMCL1P1 / RFU, AEBP2 / Fold change vs veh, AEBP2 / RFU, SNHG1 /// SNORD22 /// SNORD25 /// SNORD26 /// SNORD27 /// SNORD28 /// SNORD29 /// SNORD31 / Fold change vs veh, SNHG1 /// SNORD22 /// SNORD25 /// SNORD26 /// SNORD27 /// SNORD28 /// SNORD29 /// SNORD31 / Fold change (Aza/veh), C12orf56 (ProbeSet 11735607_a_at) / Fold change (ACY-1035/veh), C12orf56 (ProbeSet 11735607_a_at) / Fold change (Aza/veh), FGFR1OP (ProbeSet 11751329_s_at) / Fold change (ACY-1035/veh), FGFR1OP (ProbeSet 11751329_s_at) / Fold change (Aza/veh), VPS36 (ProbeSet 11739960_a_at) / Fold change (ACY-1035/veh), VPS36 (ProbeSet 11739960_a_at) / RFU SYPL1 (11715823_x_at) / Fold change /veh SYPL1 (11715823_x_at) / RFU IGFBP7 (11715501_s_at) / Fold change /veh IGFBP7 (11715501_s_at) / RFU REEP3 (11722064_at) / Fold change /veh REEP3 (11722064_at) / RFU IGLL1 (11728026_x_at) / Fold change /veh IGLL1 (11728026_x_at): dose or concentration left out as unconfirmed
Conditions: ProbeSet 11758170_s_at; LIST D

Nc1ccc(-c2cccs2)cc1NC(=O)c1ccc2c(c1)cc(C1CC1)n2CCN1CCOCC1 [ACY-1035]
RFU, DIAPH2: 32.47 RFU
